Experimental data taken from patent US12055539B2, “HDAC1/2 activator for promoting and/or accelerating myelination and/or remyelination” (UNIVERSITE DE FRIBOURG, priority 2017, dated 2024).
“Also recorded” adds a separate entry of the source.

What was measured:
[1] = tested on: HDAC1/2; assay: Acetyl-lysine immunoprecipitation and LC-MS/MS of sciatic nerves after crush lesion; format: in vivo, mouse; details: 10 mg/kg in pelvic cavity after sciatic nerve crush, nerves collected 24 h later, compared to vehicle
Procedure: Sciatic nerve crush lesions were carried out in adult mice (3-4 month old) with the following procedure: Isoflurane (3% for induction, 1.5-2% for narcosis during operation) was used for anesthesia. For analgesia, 0.1 mg/kg buprenorphine (Temgesic; Essex Chemie) was administered by i.p. injection 1 h before lesion and 12 hours after the operation. An incision was made at the height of the hip and the sciatic nerve was exposed on one side. The nerve was crushed (5×10 sec with crush forceps: Ref FST 00632-11) and the wound was closed using Histoacryl Tissue Glue (BBraun). After the operation, mice were wrapped in paper towels and placed on a warming pad until recovery from anesthesia.
For immunoprecipitation (IP), the injured sciatic nerve was collected from the lesion site to around 12 mm distal to the lesion site (region where the nerve splits into the three branches of tibial, sural and common peroneal nerves). After perineurium removal, sciatic nerves were frozen in liquid nitrogen, pulverized with a chilled mortar and pestle, lysed in radiolP assay (RIPA) buffer (10 mM Tris/HCl, pH 7.4, 150 mM NaCl, 50 mM NaF, 100 mM NaVO4, 1 mM EDTA, 0.5% wt/vol sodium deoxycholate, and 0.5% Nonidet P-40) for 15 min on ice, and centrifuged to pellet debris. Supernatants were collected and pre-cleared for 1 h with 30 gl protein A/G PLUS agarose beads (Santa Cruz Biotechnology). […]

[2] = tested on: HDAC1/2; assay: Subcellular fractionation, IP and Western blot in de-differentiated rat Schwann cells; format: cell-based
Procedure: Purified primary rat Schwann cell cultures were obtained as described (ref. 5). Rat Schwann cells were then grown in proliferation medium: DMEM containing 10% Fetal calf serum (FCS, Gibco), 1:500 penicillin/streptomycin (Invitrogen), 4 μg/m1 crude GGF (bovine pituitary extract, Bioconcept), and 2 μM forskolin (Sigma), at 37° C. and 5% CO2/95% air. Schwann cell de-differentiation culture protocol was previously described (ref. 6). Briefly, Schwann cells were first growth-arrested in defined medium (DM, ref. 5) for 8 to 15 h, then 1 mM dbcAMP (Sigma) was added to induce differentiation. Cells were incubated in this medium for another 3 days. The medium was then changed to DM only without dbcAMP, and incubated in this medium for 3 days (differentiation mimicking adult Schwann cell stage). To induce de-differentiation, cells were then changed to proliferation medium and incubated in this medium for 3 days.
Two 15-cm culture plates of confluent de-differentiated rat Schwann cells were used per IP. Cells were either treated with 0.6 μM Mocetinostat (HDAC1/2 inhibitor) or its vehicle for 3 days in de-differentiation medium. Cells were washed with PBS and submitted to subcellular fractionation to separate the nuclear from the cytoplasmic fractions. IPs were then carried out on each fraction nuclear and cytoplasmic, as described above. Immunoprecipitating antibodies: 2.5 μg of eEF1A1 (rabbit, Abcam, cat. # ab157455), Sox10 (rabbit, DCS Innovative Diagnostik-Systeme, cat. # 51058C01) or GFP (rabbit, Abcam, cat. # ab290) antibodies were used per IP. Rabbit anti-GFP antibody was used as negative control IP. Acetylation of eEF1A1 and co-immunoprecipitation of acetylated eEF1A with Sox10 were detected using EEF1A-pan (Acetyl-Lys41) primary antibody (rabbit, Assay Biotech, 1:1000, cat. # D12106). Co-immunoprecipitation of HDAC2 with eEF1A1 was detected using an HDAC2 antibody (mouse, Sigma, 1:1000, cat. # H2663). Light chain-specific goat anti-rabbit-HRP or anti-mouse-HRP secondary antibodies (Jackson ImmunoResearch) were used. Detection was done with Immobilon Western Chemiluminescent HRP Substrate (Millipore). Inputs of the IPs were assayed on lysates used for IPs. GAPDH (mouse, Gene Tex, 1:5000, cat. # GTX28245) and LaminA/C (mouse, Sigma, 1:2000, cat. # SAB4200236) antibodies were used to evaluate the efficiency of cytoplasmic and nuclear fractionation.

[3] = tested on: HDAC1/2; assay: Immunofluorescence of spinal cord after intrathecal HDAC1/2 inhibitor; format: in vivo, mouse; details: single intrathecal injection 10 mg/kg, spinal cord collected after 24 h, vs vehicle
Procedure: For immuno fluorescence, adult mice were treated with a single intratechal injection of 10 mg/kg Mocetinostat (HDAC1/2 inhibitor) or its vehicle and their spinal cord was collected 24 h after injection. Mice were killed and perfused with 4% PFA and their spinal cord was processed as described above in Example 8. Primary antibody: EEF1A-pan (Acetyl-Lys41) antibody (rabbit, Assay Biotech, 1:1000, cat. # D12106), CC1 (mouse, 1:200, Calbiochem/Millipore, cat. # OP80).

[4] = target: T1, HDAC2 (Mus musculus, UniProt P70288); assay: Western blot of sciatic nerve lysates after sciatic nerve crush lesion; format: in vivo; details: 10 mg/kg/day i.p. from 9 to 13 dpl, 14 and/or 30 dpl, vs vehicle
T1 construct: from tissue; host or cells: mouse sciatic nerve (adult after crush; P4 control and Schwann-cell HDAC1/2 dKO pups)
Procedure: Adult mice were treated with intraperitoneal injection of 10 mg/kg/day theophylline or its vehicle from 9 to 13 days post sciatic nerve crush lesion. At 14 days post lesion (dpl) the injured sciatic nerve (“crush”) was collected, as well as the same region of the contralateral nerve (“contra”) as internal control for each animal. After perineurium removal, sciatic nerves were frozen in liquid nitrogen, pulverized with a chilled mortar and pestle, lysed in RIPA buffer for 15 min on ice, and centrifuged to pellet debris. Supernatants were collected, and protein concentration was determined by Lowry Protein assay (Bio-Rad Laboratories). Sciatic nerves were submitted to SDS-PAGE and analysed by Western blot. Primary antibodies: HDAC2 (mouse, 1:1000, Sigma, cat. # H2663), Sox10 (rabbit, 1:250, DCS Innovative Diagnostik-Systeme, cat. # SI058C01), GAPDH (glyceraldehyde-3-phosphate-dehydrogenase, mouse, 1:5000, Genetex, cat. # GTX28245), P0 (chicken, 1:1000, Ayes Labs, cat. # PZO), Krox20 (rabbit, 1:500, Axxora, cat. # CO-PRB-236P-100). All secondary antibodies were from Jackson ImmunoResearch: light chain-specific goat anti-mouse-HRP (horse radish peroxidase) and goat anti-rabbit-HRP, and heavy chain-specific goat anti-chicken-HRP.

[5] = tested on: HDAC2; assay: Western blot of P4 sciatic nerve lysates of control and HDAC1/2 dKO mice; format: in vivo, mouse; details: control mice, 10 mg/kg s.c. once a day for 3 days from P1, nerves at P4
Procedure: In P1 control and dKO mice (as described in Example 2), 10 mg/kg theophylline or its vehicle were injected subcutaneously once a day for 3 days. Sciatic nerves were collected at P4. After perineurium removal, sciatic nerves were frozen in liquid nitrogen, pulverized with a chilled mortar and pestle, lysed in RIPA buffer for 15 min on ice, and centrifuged to pellet debris. Supernatants were collected, submitted to SDS-PAGE and analysed by Western blot. Primary antibodies: HDAC2 (mouse, 1:1000, Sigma, cat. # H2663), Sox10 (rabbit, 1:250, DCS Innovative Diagnostik-Systeme, cat. # SI058C01), GAPDH (glyceraldehyde-3-phosphate-dehydrogenase, mouse, 1:5000, Genetex, cat. # GTX28245), P0 (chicken, 1:1000, Ayes Labs, cat. # PZO). Secondary antibodies were from Jackson ImmunoResearch: light chain-specific goat anti-mouse-HRP (horse radish peroxidase) and goat anti-rabbit-HRP, and heavy chain-specific goat anti-chicken-HRP.

[6] = tested on: crushed sciatic nerves; assay: Electron microscopy of crushed sciatic nerves, myelin thickness (g-ratio); format: in vivo, mouse; details: 10 mg/kg/day i.p. from 9 to 13 dpl, vs vehicle; for myelin sheath thickness: 10 mg/kg/day
Procedure: Adult mice were treated with theophylline or vehicle as described above in Example 4 from 9 to 13 days post sciatic nerve crush lesion. Injured sciatic nerves were collected for morphological analysis by electron microscopy. Briefly, mice were killed with 150 mg/kg pentobarbital i.p. (Esconarkon; Streuli Pharma AG) and sciatic nerves were fixed in situ with 3% paraformaldehyde and 0.15% glutaraldehyde in 0.1 M phosphate buffer, pH 7.4. Fixed tissues were post-fixed in 2% osmium tetroxide, dehydrated through a graded acetone series as described previously (ref. 7), and embedded in Spurr's resin (Electron Microscopy Sciences). Ultrathin cross-sections (90-nm thick) were made, as described (ref. 7). All analyses were done at 5 mm distal to the lesion site. No contrasting reagent was applied. Images were acquired using a Philips CM 100 BIOTWIN equipped with a Morada side-mounted digital camera (Olympus). The g-ratio of at least 50 axons was measured per animal and 3 animals per group (theophylline or vehicle) were used at 14 dpl. At 30 dpl, only 2 animals were used (more animals will be added at 30 days post lesion for statistical analyses).

[7] = tested on: mice after sciatic nerve crush lesion; assay: Rotarod after sciatic nerve crush lesion; format: in vivo, mouse; details: 15 rpm, 10 mg/kg/day i.p. from 9 to 13 dpl, vs vehicle
Procedure: (§1) Adult mice were treated with theophylline or vehicle as described above in Example 4 from 9 to 13 days post sciatic nerve crush lesion (carried out as described above in Example 1). Mice were placed three times on the Rotarod apparatus at a fixed speed of 15 rpm to test balance and motor coordination, at 14 and 30 dpl. The duration of each trial was limited to 600 s, and trials were separated by a 30 min recovery period. Latency to fall from the rotating beam was recorded and the average of the three trials was used for quantification. Recovery of sensory function was tested at 14 and 30 dpl by toe pinch test: each toe of the rear foot on the right side (lesioned side) was pinched with equal pressure applied by the same experimenter using flat tip forceps. Immediate withdrawal was recorded as functional sensitivity of the pinched toe. […] All mice were between 3 and 4 months old. The experimenter was blinded regarding the treatment that mice received.

[8] = tested on: mice after sciatic nerve crush lesion; assay: Toe pinch test after sciatic nerve crush lesion; format: in vivo, mouse; details: 10 mg/kg/day i.p. from 9 to 13 dpl, vs vehicle
Procedure: as §1

[9] = target: T1, HDAC2; assay: Immunofluorescence of lysolecithin lesion site in dorsal funiculus of spinal cord; format: in vivo; details: 14 dpl, treated 9 to 13 days post lysolecithin lesion, vs vehicle
Procedure: A focal demyelinating lesion was induced in the dorsal funiculus of the spinal cord of adult mice by injection of lysolecithin (1 μl at 1%), as described (ref. 9). This demyelination model is used as a model of multiple sclerosis lesion and is well characterized, the kinetics of demyelination and remyelination being well known. Mice were treated as described above in Example 4 with theophylline or vehicle for 4 days from 9 to 13 days post lysolecithin lesion, when OLP start to re-differentiate to remyelinate demyelinated axons. Mice were killed with 150 mg/kg pentobarbital i.p. (Esconarkon; Streuli Pharma AG) and perfused with 4% PFA. Spinal cords were collected, post-fixed for 2 h in 4% PFA, incubated in 30% sucrose overnight at 4° C., embedded in OCT compound and stored at −80° C. Spinal cords were then processed as sciatic nerves for immunofluorescence, as described in Example 2. Primary antibodies: HDAC2 (rabbit, 1:200, Santa Cruz Biotechnology, cat. # sc-7899), CC1 (mouse, 1:200, Calbiochem/Millipore, cat. # OP80), MBP (rat, 1:500, Serotec, cat. # MCA409S), Sox10 (rabbit, 1:250, DCS Innovative Diagnostik-Systeme, cat. # SI058C01).

[10] = tested on: lysolecithin demyelinating lesion of the spinal cord; assay: Electron microscopy of spinal cord after lysolecithin lesion (remyelination); format: in vivo, mouse; details: 14 and 30 dpl, treated 9 to 13 days post lysolecithin lesion, vs vehicle
Procedure: For electron microscopy analyses, adult mice were submitted to a lysolecithin lesion and treated with theophylline or vehicle, as described above in Example 8. Mice were killed at 14 dpl or 30 dpl with 150 mg/kg pentobarbital i.p. (Esconarkon; Streuli Pharma AG) and perfused with 3% PFA and 0.15% glutaraldehyde in 0.1 M phosphate buffer, pH 7.4. Spinal cords were collected and processed as described above in Example 6.

[11] = tested on: multiple sclerosis; assay: Contemplative combination treatment of MS patients; format: in vivo, human
Procedure: In this contemplative example, a group of female and male patients suffering from MS receiving theophylline [250 mg/day] during 1 month in addition to the standard treatment of interferon-β1a.

[12] = 0.6 μM for 3 days in de-differentiation medium

T1 sequence (P70288 whole entry): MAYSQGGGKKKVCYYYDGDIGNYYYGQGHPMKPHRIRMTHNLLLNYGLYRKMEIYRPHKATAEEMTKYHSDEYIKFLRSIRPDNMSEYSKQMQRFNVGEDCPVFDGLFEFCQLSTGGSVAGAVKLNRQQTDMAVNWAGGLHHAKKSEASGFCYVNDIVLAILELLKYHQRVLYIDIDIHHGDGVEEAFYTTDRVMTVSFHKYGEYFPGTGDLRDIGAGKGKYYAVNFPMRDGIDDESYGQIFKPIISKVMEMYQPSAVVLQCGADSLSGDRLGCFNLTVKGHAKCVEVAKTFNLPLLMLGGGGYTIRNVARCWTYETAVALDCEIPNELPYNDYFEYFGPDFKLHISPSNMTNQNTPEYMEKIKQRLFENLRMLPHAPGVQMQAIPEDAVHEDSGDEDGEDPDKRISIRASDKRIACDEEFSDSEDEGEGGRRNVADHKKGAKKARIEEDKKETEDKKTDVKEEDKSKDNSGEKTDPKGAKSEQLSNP

Nc1ccccc1NC(=O)c1ccc(CNc2nccc(-c3cccnc3)n2)cc1 [Mocetinostat]
abundance of eEF1A1 peptides after immunoprecipitation with anti-acetyl-lysine antibody [1]: increased abundance | Sox10 expression in the nuclear compartment [2, 12]: strong decrease | Sox10 localization [2, 12]: partially re-localized from the nuclear to the cytoplasmic compartment | acetylated eEF1A1 levels ([2]; 0.6 μM for 3 days in de-differentiation medium, vs vehicle, predominantly nuclear): strong increase | interaction (co-immunoprecipitation) of acetylated eEF1A with Sox10 ([2]; 0.6 μM for 3 days, nuclear and cytoplasmic fractions): potentiated | acetylated eEF1A in mature oligodendrocytes (CC1+) [3]: robust increase; also recorded: accumulation of Ace-eEF1A in the nuclei of oligodendrocytes

Cn1c(=O)c2[nH]cnc2n(C)c1=O [theophylline]
HDAC2 expression levels [4]: increased levels | Krox20 levels [4]: high increase; also recorded: increased levels | P0 (myelin protein zero) levels [4]: high increase; also recorded: increased levels | Sox10 levels [4]: high increase; also recorded: increased levels | HDAC2 levels [5]: increases; also recorded: increased levels | P0 levels [5]: increases; also recorded: increased levels | Sox10 levels [5]: increases; also recorded: increased levels | g-ratio (axon diameter : [axon+myelin] diameter) ([6]; 5 mm distal to lesion site): significantly lower | myelin sheath thickness ([6]; 14 dpl): thicker myelin sheath | myelin sheath thickness ([6]; 30 dpl (only 2 animals)): presumably also at 30 dpl; also recorded: thicker | performance on the Rotarod (motor function and coordination) ([7]; 14 dpl): higher performances | performance on the Rotarod (motor function and coordination) ([7]; 30 dpl): perform as well as theophylline-treated mice | toe pinch test, recovery of sensory function ([8]; 14 dpl): recovered the sensitivity of more toes | toe pinch test, recovery of sensory function ([8]; 30 dpl): vehicle-treated mice had not yet recovered their sensory function as well as theophylline-treated mice | HDAC2 expression in the lesion site of the spinal cord, including differentiated oligodendrocytes (CC1-positive) [9]: strongly increases; also recorded: higher amounts of HDAC2 | Sox10 levels in the lesion site [9]: increases; also recorded: higher levels of Sox10 | myelin basic protein (MBP) levels in the lesion site [9]: increases; also recorded: higher myelin content | remyelination of the lesioned spinal cord [10]: strongly enhanced | disease progression ([11]; 250 mg/day during 1 month in addition to standard interferon-β1a): in some cases complete stop of disease progression | remission following an attack (exacerbation) ([11]; 250 mg/day during 1 month in addition to standard interferon-β1a, vs standard treatment only): significantly faster remission | life quality ([11]; combination therapy with interferon-β1a): substantially increased life quality
